In the Kinase Knowledgebase extract (Sharma et al. 2016):

Molecular target: MAPK14 (human) (UniProt Q16539)
Test: Inhibition of MAPK14 Kinase Activity

Sequence of MAPK14 (human) (Q16539 whole entry, looked up): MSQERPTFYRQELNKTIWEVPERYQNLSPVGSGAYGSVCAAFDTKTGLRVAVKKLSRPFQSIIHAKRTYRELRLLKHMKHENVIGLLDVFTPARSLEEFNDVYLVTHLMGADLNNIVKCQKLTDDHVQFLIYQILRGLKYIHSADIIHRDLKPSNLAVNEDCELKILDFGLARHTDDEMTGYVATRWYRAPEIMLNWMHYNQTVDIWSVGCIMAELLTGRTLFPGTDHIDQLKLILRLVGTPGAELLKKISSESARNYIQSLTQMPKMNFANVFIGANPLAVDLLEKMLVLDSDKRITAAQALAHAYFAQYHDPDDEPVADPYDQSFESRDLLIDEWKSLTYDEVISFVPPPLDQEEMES

Compound	IC50 [µM]
COc1nc(-c2ccccc2F)c2ccc(=O)n(-c3ccccc3Cl)c2n1	< 10
Cc1cc(F)ccc1-c1nc(NC[C@H](O)c2ccccc2)nc2c1ccc(=O)n2-c1c(F)cccc1F	< 10
Cc1cc(F)ccc1-c1nc(NCCNS(C)(=O)=O)nc2c1ccc(=O)n2-c1c(F)cccc1F	< 10
Cc1cc(F)ccc1-c1nc(NCCNC(=O)CN)nc2c1ccc(=O)n2-c1c(F)cccc1F	< 10
Cc1cc(F)ccc1-c1nc(NCC2CCS(=O)(=O)C2)nc2c1ccc(=O)n2-c1c(F)cccc1F (configuration not stated)	< 10
Cc1cc(F)ccc1-c1nc(NC(CO)CO)nc2c1ccc(=O)n2C(C)C	< 10
Cc1cc(F)ccc1-c1nc(NCCNC(=O)Nc2ccccc2)nc2c1ccc(=O)n2-c1c(F)cccc1F	< 10
CCOc1nc(-c2ccc(F)cc2C)c2ccc(=O)n(C3CCCCC3)c2n1	< 10
O=c1ccc2c(-c3ccccc3Cl)nc(OCCO)nc2n1-c1ccccc1Cl	< 10
CCn1c(=O)ccc2c(-c3ccccc3F)nc(SC)nc21	< 10
CSc1nc(-c2ccc(F)cc2C)c2ccc(=O)n(C3CC3)c2n1	< 10
CS(=O)(=O)Nc1nc(-c2ccccc2F)c2ccc(=O)n(-c3ccccc3F)c2n1	< 10
CSc1nc(-c2ccc(F)cc2C)c2ccc(=O)n(-c3ccccc3C)c2n1	< 10
CCC(CC)n1c(=O)ccc2c(-c3ccc(F)cc3C)nc(OC)nc21	< 10
Cc1cc(F)ccc1-c1nc(NC(=O)C2CC2)nc2c1ccc(=O)n2-c1c(F)cccc1F	< 10
Cc1cc(F)ccc1-c1nc(NCCNC(=O)OC(C)(C)C)nc2c1ccc(=O)n2-c1c(F)cccc1F	< 10
Cc1cc(F)ccc1-c1nc(NCCO)nc2c1ccc(=O)n2-c1c(C)cccc1C	< 10
Cc1cc(F)ccc1-c1nc(NC(CO)CO)nc2c1ccc(=O)n2CC1CC1	< 10
Cc1cc(F)ccc1-c1nc(NC2CCOCC2)nc2c1ccc(=O)n2-c1c(F)cccc1F	< 10
CCN(CC)CCNc1nc(-c2ccccc2Cl)c2ccc(=O)n(-c3ccccc3Cl)c2n1	< 10
O=c1ccc2c(-c3ccccc3Cl)nc(NCCO)nc2n1-c1ccccc1Cl	< 10
Cc1cc(F)ccc1-c1nc(N(C(=O)C2CC2)C(=O)C2CC2)nc2c1ccc(=O)n2-c1c(F)cccc1F	< 10
CSc1nc(-c2ccc(F)cc2C)c2ccc(=O)n(CC3CC3)c2n1	< 10
Cc1cc(F)ccc1-c1nc(NCCCl)nc2c1ccc(=O)n2-c1c(F)cccc1F	< 10

Compound	IC50 [µM]
CCC(C)n1c(=O)ccc2c(-c3ccccc3F)nc(SC)nc21 (configuration not stated)	< 10
CC(CO)(CO)Nc1nc(-c2ccccc2Cl)c2ccc(=O)n(-c3ccccc3Cl)c2n1	< 10
CSCCCNc1nc(-c2ccc(F)cc2C)c2ccc(=O)n(-c3c(F)cccc3F)c2n1	< 10
O=c1ccc2c(-c3ccccc3F)nc(NC(CO)CO)nc2n1CC1CC1	< 10
Cc1cc(F)ccc1-c1nc(NCCCS(C)(=O)=O)nc2c1ccc(=O)n2-c1c(F)cccc1F	< 10
CCNc1nc(-c2ccc(F)cc2C)c2ccc(=O)n(-c3c(F)cccc3F)c2n1	< 10
CCC(C)n1c(=O)ccc2c(-c3ccc(F)cc3C)nc(SC)nc21 (configuration not stated)	< 10
Cc1cc(F)ccc1-c1nc(NC(CO)CO)nc2c1ccc(=O)n2-c1c(C)cccc1C	< 10
CCOC(=O)CNc1nc(-c2ccccc2Cl)c2ccc(=O)n(C(CC)CC)c2n1	< 10
Cc1cc(F)ccc1-c1nc(NCC2CCCO2)nc2c1ccc(=O)n2-c1c(F)cccc1F (configuration not stated)	< 10
CCC(CC)n1c(=O)ccc2c(-c3ccccc3Cl)nc(NCCN(CC)CC)nc21	< 10
Cc1cc(F)ccc1-c1nc(N[C@H]2CCCC[C@@H]2O)nc2c1ccc(=O)n2-c1c(F)cccc1F	< 10
Cc1cc(F)ccc1-c1nc(NC(CO)CO)nc2c1ccc(=O)n2-c1ccccc1F	< 10
Cc1cc(F)ccc1-c1nc(NCCc2noc(=O)[nH]2)nc2c1ccc(=O)n2-c1c(F)cccc1F	< 10
NCCNc1nc(-c2ccccc2Cl)c2ccc(=O)n(-c3ccccc3Cl)c2n1	< 10
Cc1cc(F)ccc1-c1nc(NCC(=O)N2CCOCC2)nc2c1ccc(=O)n2-c1c(F)cccc1F	< 10
CSc1nc(-c2ccccc2Cl)c2ccc(=O)n(-c3ccccc3Cl)c2n1	< 10
CSc1nc(-c2ccc(F)cc2C)c2ccc(=O)n(-c3c(F)cccc3F)c2n1	< 10
Cc1cc(F)ccc1-c1nc(N2CCOCC2)nc2c1ccc(=O)n2-c1ccccc1C	< 10
Cc1cc(F)ccc1-c1nc(NCCO)nc2c1ccc(=O)n2C(C)C	< 10
Cc1cc(F)ccc1-c1nc(NC(C)(C)CO)nc2c1ccc(=O)n2-c1ccccc1F	< 10
O=c1ccc2c(-c3ccccc3Cl)nc(NC3CCNCC3)nc2n1-c1ccccc1Cl	< 10
Cc1cc(F)ccc1-c1nc(NCCCN2CCCC2=O)nc2c1ccc(=O)n2-c1c(F)cccc1F	< 10
Cc1cc(F)ccc1-c1nc(NC(C)(C)CO)nc2c1ccc(=O)n2-c1ccccc1C	< 10

Compound	IC50 [µM]
CSc1nc(-c2ccccc2F)c2ccc(=O)n(-c3ccccc3F)c2n1	< 10
CNC(=O)NCCNc1nc(-c2ccc(F)cc2C)c2ccc(=O)n(-c3c(F)cccc3F)c2n1	< 10
Cc1cc(F)ccc1-c1nc(NC2CCCCC2)nc2c1ccc(=O)n2-c1ccccc1F	< 10
COc1nc(-c2ccccc2F)c2ccc(=O)n(-c3c(F)cccc3F)c2n1	< 10
Cc1nnc(CNc2nc(-c3ccc(F)cc3C)c3ccc(=O)n(-c4c(F)cccc4F)c3n2)[nH]1	< 10
Cc1cc(F)ccc1-c1nc(NC[C@@H](C)O)nc2c1ccc(=O)n2-c1ccccc1C	< 10
CSc1nc(NC2CCCCC2)c(C=O)c(-c2ccc(F)cc2C)n1	< 10
Cc1cc(F)ccc1-c1nc(NCC(=O)NCCO)nc2c1ccc(=O)n2-c1c(F)cccc1F	< 10
Cc1cc(F)ccc1-c1nc(NC[C@H](C)O)nc2c1ccc(=O)n2-c1ccccc1F	< 10
Cc1cc(F)ccc1-c1nc(NC2CCCCC2)nc2c1ccc(=O)n2-c1c(F)cccc1F	< 10
CS(=O)(=O)c1nc(-c2ccccc2)c2ccc(=O)n(-c3ccccc3)c2n1	< 10
CSc1nc(Cl)c(C=O)c(NC2CCCCC2)n1	< 10
Cc1cc(F)ccc1-c1nc(NCC(C)(C)O)nc2c1ccc(=O)n2C1CCCCC1	< 10
Cc1cc(F)ccc1-c1nc(Nc2nnn[nH]2)nc2c1ccc(=O)n2-c1c(F)cccc1F	< 10
Cc1cc(F)ccc1-c1nc(Nc2c[nH]c(=O)[nH]c2=O)nc2c1ccc(=O)n2-c1c(F)cccc1F	< 10
Cc1cc(F)ccc1-c1nc(NCC(C)(C)O)nc2c1ccc(=O)n2-c1ccccc1C	< 10
Nc1nc(-c2ccccc2F)c2ccc(=O)n(-c3c(F)cccc3F)c2n1	< 10
Cc1cc(F)ccc1-c1nc(NC[C@H](C)O)nc2c1ccc(=O)n2-c1ccccc1C	< 10
Cc1cc(F)ccc1-c1nc(S(C)(=O)=O)nc2c1ccc(=O)n2C1CCCCC1	< 10
Cc1cc(F)ccc1-c1nc(Nc2ccnc(=O)[nH]2)nc2c1ccc(=O)n2-c1c(F)cccc1F	< 10
Cc1cc(F)ccc1-c1nc(NC[C@@H](C)O)nc2c1ccc(=O)n2-c1c(F)cccc1F	< 10
Cc1cc(F)ccc1-c1nc(NC[C@H](C)O)nc2c1ccc(=O)n2-c1c(F)cccc1F	< 10
CSc1nc(-c2ccccc2)c2ccc(=O)n(-c3ccccc3)c2n1	< 10
Cc1cc(F)ccc1-c1nc(NC(CO)(CO)CO)nc2c1ccc(=O)n2-c1c(F)cccc1F	< 10
